Reference: the SangsterLogP compilation

logP	Compound
0.9	CCN1C(=O)C(=O)c2c(OC)cccc2C1=O
1.31	CCN1C(=O)C(=O)c2cc(OC)c(OC)cc2C1=O
0.82	CCN1C(=O)C(=O)c2c(cccc2[N+](=O)[O-])C1=O
2.46	CCN1C(=O)C(=O)c2cc3ccccc3cc2C1=O
1.49	CCN1C(=O)C(=O)c2ccc(OC)cc2C1=O
1.23	CCN1C(=O)C(=O)c2c(OC)cc(OC)cc2C1=O
1.13	CCN1C(=O)C(=O)c2ccccc2C1=O
2.15	CCC(C)N1C(=O)C(=O)c2ccccc2C1=O (configuration not stated)
1.6	CC(C)N1C(=O)C(=O)c2ccccc2C1=O
-0.5	CCN1C(=O)C(=O)c2c(C(N)=O)cccc2C1=O
1.6	CCCN1C(=O)C(=O)c2ccccc2C1=O
0.41	CCN1C(=O)C(=O)c2c(C#N)cccc2C1=O
1.14	O=C1C(=O)N(c2ccccc2)C(=O)c2ccccc21
2.18	CCCCN1C(=O)C(=O)c2ccccc2C1=O
1.79	CCN1C(=O)C(=O)c2ccc(Cl)cc2C1=O
0.94	CCN1C(=O)C(=O)c2cccc(OC)c2C1=O
2.08	CC(C)CN1C(=O)C(=O)c2ccccc2C1=O
1.43	CCN1C(=O)C(=O)c2c(Cl)cccc2C1=O
0.3	CCNC(=O)c1cccc2c1C(=O)C(=O)N(CC)C2=O
0.6	CN1C(=O)C(=O)c2ccccc2C1=O
1.31	CCOC(=O)c1cccc2c1C(=O)C(=O)N(CC)C2=O
0.78	CCN(CC)C(=O)c1cccc2c1C(=O)C(=O)N(CC)C2=O
